These results are taken from EP1247803A2, “Indolinone compounds suitable for modulation of protein kinases” (Sugen, Inc., priority 1996, dated 1998).

For the experiment, the target named is T1, FLK-1 receptor (Mus musculus, UniProt P35918).
T1 construct: expressed in transfected cells; host or cells: NIH3T3 C7#3
T1 sequence (P35918 20-1345): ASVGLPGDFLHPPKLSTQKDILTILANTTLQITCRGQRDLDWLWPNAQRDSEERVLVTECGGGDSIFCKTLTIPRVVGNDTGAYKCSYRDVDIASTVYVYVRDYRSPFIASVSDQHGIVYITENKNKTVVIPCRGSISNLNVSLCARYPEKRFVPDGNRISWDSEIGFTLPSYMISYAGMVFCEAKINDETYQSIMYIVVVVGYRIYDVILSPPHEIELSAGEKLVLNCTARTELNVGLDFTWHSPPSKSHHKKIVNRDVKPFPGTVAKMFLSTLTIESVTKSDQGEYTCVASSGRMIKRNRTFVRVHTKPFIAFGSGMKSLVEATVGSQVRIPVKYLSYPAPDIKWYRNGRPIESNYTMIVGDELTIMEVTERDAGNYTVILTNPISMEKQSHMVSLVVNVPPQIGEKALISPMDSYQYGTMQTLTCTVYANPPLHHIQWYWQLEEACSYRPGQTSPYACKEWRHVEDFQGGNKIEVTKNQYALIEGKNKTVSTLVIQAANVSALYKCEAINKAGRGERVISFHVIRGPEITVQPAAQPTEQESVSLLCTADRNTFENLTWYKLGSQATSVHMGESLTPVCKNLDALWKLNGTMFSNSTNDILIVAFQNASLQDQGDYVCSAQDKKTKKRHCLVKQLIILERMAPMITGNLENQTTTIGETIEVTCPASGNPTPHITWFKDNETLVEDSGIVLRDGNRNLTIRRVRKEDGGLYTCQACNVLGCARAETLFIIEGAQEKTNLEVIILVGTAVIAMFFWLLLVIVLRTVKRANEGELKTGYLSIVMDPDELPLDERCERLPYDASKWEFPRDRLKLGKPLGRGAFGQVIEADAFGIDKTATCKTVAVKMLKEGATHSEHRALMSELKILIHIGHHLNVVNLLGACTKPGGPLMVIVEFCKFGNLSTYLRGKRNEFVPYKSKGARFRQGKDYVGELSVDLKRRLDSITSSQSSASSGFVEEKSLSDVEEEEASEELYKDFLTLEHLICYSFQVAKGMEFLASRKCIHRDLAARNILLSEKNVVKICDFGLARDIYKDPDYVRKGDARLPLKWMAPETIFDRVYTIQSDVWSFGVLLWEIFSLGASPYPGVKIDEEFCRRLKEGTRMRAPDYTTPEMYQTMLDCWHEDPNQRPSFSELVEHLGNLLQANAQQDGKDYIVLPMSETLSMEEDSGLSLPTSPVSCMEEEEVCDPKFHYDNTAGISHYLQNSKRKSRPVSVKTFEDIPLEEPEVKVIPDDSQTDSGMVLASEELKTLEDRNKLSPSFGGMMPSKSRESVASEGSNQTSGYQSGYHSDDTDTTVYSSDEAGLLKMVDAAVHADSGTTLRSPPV
Briefly: FLK-1 ELISA (kinase activity of the FLK-1 receptor in FLK-1/NIH3T3 cells, VEGF stimulated). The experiment is classed as cell-based. On the set-up: concentration or dose not given beside the values. In short, it runs like this: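 An ELISA using affinity-purified rabbit anti-FLK-1 antiserum on anti-rabbit IgG-coated plates measured VEGF-stimulated FLK-1 kinase activity. NIH3T3 C7#3 cells carrying FLK-1 were serum-starved (0.1% FBS) overnight, then exposed to compound (final 1:200 dilution, 0.5% DMSO) for two hours at 37 °C.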
A general note: ELISA stands for enzyme-linked immunosorbent assay.
As for `Cn1cccc1C=C1C(=O)Nc2c(Br)cc(Br)cc21` [10717/A04], the “Fik Kinase %Inhibition” value is on record as -4.5%.

As to `O=C1Nc2ccc(S(=O)(=O)Nc3ccc(C(F)(F)F)cc3)cc2C1=Cc1ccc[nH]1` [10717/E09], the “Fik Kinase %Inhibition” value is -1.1%.

For `COc1cccc(O)c1C=C1C(=O)Nc2ccc(S(=O)(=O)Nc3ccc(C(F)(F)F)cc3)cc21` [10717/E10], the “Fik Kinase %Inhibition” value was 4.7%.

Turning to `Cc1[nH]c(C=C2C(=O)Nc3ccc(S(=O)(=O)Nc4ccc(C(F)(F)F)cc4)cc32)c(Br)c1Br` [10717/E11], the “Fik Kinase %Inhibition” value stood at 8.9%.

As for `CCOc1ccccc1C=C1C(=O)Nc2ccc(S(=O)(=O)N3CCOCC3)cc21` [10717/F02], the “Fik Kinase %Inhibition” value turned out to be 2.2%.

Turning to `O=C1Nc2ccc(S(=O)(=O)N3CCOCC3)cc2C1=Cc1cccs1` [10717/F03], the “Fik Kinase %Inhibition” value was determined as 0.5%.

Turning to `Cn1cccc1C=C1C(=O)Nc2ccc(S(=O)(=O)N3CCOCC3)cc21` [10717/F04], the “Fik Kinase %Inhibition” value is listed as -0.1%.

On to `O=C1Nc2ccc(S(=O)(=O)N3CCOCC3)cc2C1=Cc1ccc(F)cc1` [10717/F05], for which the “Fik Kinase %Inhibition” value is on record as 3.2%.

Consider `O=C1Nc2ccc(S(=O)(=O)N3CCOCC3)cc2C1=Cc1c[nH]c2ccccc12` [10717/F06], for which the “Fik Kinase %Inhibition” value is 8.9%.

Consider `O=C1Nc2ccc(CCCl)cc2C1=Cc1cccc(Br)c1` [10723/G10], for which the “Fik Kinase %Inhibition” value is given as “. 3.5%”.

For the molecule `CC(C)(C)c1cc(C=C2C(=O)Nc3ccc(CCCl)cc32)c(O)c(C(C)(C)C)c1` [10723/G11], the “Fik Kinase %Inhibition” value is reported as -4.1%.

As to `CN(C)c1ccc(C=C2C(=O)Nc3c(Br)cc(Br)cc32)c2ccccc12` [10724/A02], the “Fik Kinase %Inhibition” value worked out at 1.8%.

In the case of `O=C1Nc2c(Br)cc(Br)cc2C1=Cc1ccc(O)c([N+](=O)[O-])c1` [10724/A03], the “Fik Kinase %Inhibition” value was -7.8%.

In the case of `O=C1Nc2c(Br)cc(Br)cc2C1=Cc1ccc([N+](=O)[O-])c(O)c1` [10724/A04], the “Fik Kinase %Inhibition” value is on record as -15.9%.

`O=C1Nc2c(Br)cc(Br)cc2C1=Cc1cc2c3c(c1O)CCCN3CCC2` [10724/A05]: the “Fik Kinase %Inhibition” value was -15.2%.

With `CC(C)c1cc(C=C2C(=O)Nc3c(Br)cc(Br)cc32)cc(C(C)C)c1O` [10724/A06], the “Fik Kinase %Inhibition” value was -3.7%.

Consider `O=C1Nc2c(Br)cc(Br)cc2C1=Cc1cc2ccccc2o1` [10724/A07], for which the “Fik Kinase %Inhibition” value came out at 3.7%.

Regarding `O=C1Nc2c(Br)cc(Br)cc2C1=Cc1cccn1-c1ccc(Cl)cc1` [10724/A09], the “Fik Kinase %Inhibition” value is -5.2%.

As for `CCc1ccc(C=C2C(=O)Nc3c(Br)cc(Br)cc32)o1` [10724/A10], the “Fik Kinase %Inhibition” value came to 1.6%.

As for `Cc1csc2sc(C=C3C(=O)Nc4c(Br)cc(Br)cc43)c(C)c12` [10724/A11], the “Fik Kinase %Inhibition” value was 12.8%.

Take `O=C1Nc2ccc(I)cc2C1=Cc1ccc(O)c([N+](=O)[O-])c1` [10724/B03]: the “Fik Kinase %Inhibition” value is reported as -48.9%.

For `CC(C)c1cc(C=C2C(=O)Nc3ccc(I)cc32)cc(C(C)C)c1O` [10724/B06], the “Fik Kinase %Inhibition” value is given as 13.4%.

On to `O=C1Nc2ccc(I)cc2C1=Cc1cc2ccccc2o1` [10724/B07], for which the “Fik Kinase %Inhibition” value was -1.8%.

For the molecule `O=C1Nc2ccc(I)cc2C1=Cc1cccn1-c1ccc(Cl)cc1` [10724/B09], the “Fik Kinase %Inhibition” value stood at 3.5%.

Regarding `CCc1ccc(C=C2C(=O)Nc3ccc(I)cc32)o1` [10724/B10], the “Fik Kinase %Inhibition” value worked out at 8.5%.

On to `Cc1csc2sc(C=C3C(=O)Nc4ccc(I)cc43)c(C)c12` [10724/B11], for which the “Fik Kinase %Inhibition” value is 9.0%.

Take `Cc1c(Br)ccc2c1C(=Cc1ccc(N(C)C)c3ccccc13)C(=O)N2` [10724/C02]: the “Fik Kinase %Inhibition” value is reported as -0.3%.

With `Cc1c(Br)ccc2c1C(=Cc1ccc(O)c([N+](=O)[O-])c1)C(=O)N2` [10724/C03], the “Fik Kinase %Inhibition” value was -20.3%.

For the molecule `Cc1c(Br)ccc2c1C(=Cc1ccc([N+](=O)[O-])c(O)c1)C(=O)N2` [10724/C04], the “Fik Kinase %Inhibition” value is on record as -18.6%.

With `Cc1c(Br)ccc2c1C(=Cc1cc3c4c(c1O)CCCN4CCC3)C(=O)N2` [10724/C05], the “Fik Kinase %Inhibition” value was -18.6%.

Turning to `Cc1c(Br)ccc2c1C(=Cc1cc(C(C)C)c(O)c(C(C)C)c1)C(=O)N2` [10724/C06], the “Fik Kinase %Inhibition” value was -1.5%.

Turning to `Cc1c(Br)ccc2c1C(=Cc1cc3ccccc3o1)C(=O)N2` [10724/C07], the “Fik Kinase %Inhibition” value was -1.2%.

Take `Cc1c(Br)ccc2c1C(=Cc1cccn1-c1ccc(Cl)cc1)C(=O)N2` [10724/C09]: the “Fik Kinase %Inhibition” value is reported as 9.3%.

For the molecule `CCc1ccc(C=C2C(=O)Nc3ccc(Br)c(C)c32)o1` [10724/C10], the “Fik Kinase %Inhibition” value is on record as -2.3%.

Take `Cc1c(Br)ccc2c1C(=Cc1sc3scc(C)c3c1C)C(=O)N2` [10724/C11]: the “Fik Kinase %Inhibition” value is 10.3%.

For the molecule `CNS(=O)(=O)c1ccc2c(c1)C(=Cc1ccc(N(C)C)c3ccccc13)C(=O)N2` [10724/D02], the “Fik Kinase %Inhibition” value is listed as 12.4%.

Consider `CNS(=O)(=O)c1ccc2c(c1)C(=Cc1ccc(O)c([N+](=O)[O-])c1)C(=O)N2` [10724/D03], for which the “Fik Kinase %Inhibition” value amounted to 0.1%.

For `CNS(=O)(=O)c1ccc2c(c1)C(=Cc1ccc([N+](=O)[O-])c(O)c1)C(=O)N2` [10724/D04], the “Fik Kinase %Inhibition” value is reported as 0.5%.

Turning to `CNS(=O)(=O)c1ccc2c(c1)C(=Cc1cc3c4c(c1O)CCCN4CCC3)C(=O)N2` [10724/D05], the “Fik Kinase %Inhibition” value was -1.6%.

On to `CNS(=O)(=O)c1ccc2c(c1)C(=Cc1cc(C(C)C)c(O)c(C(C)C)c1)C(=O)N2` [10724/D06], for which the “Fik Kinase %Inhibition” value was 12.4%.

Consider `CNS(=O)(=O)c1ccc2c(c1)C(=Cc1cc3ccccc3o1)C(=O)N2` [10724/D07], for which the “Fik Kinase %Inhibition” value is reported as -2.6%.

`CNS(=O)(=O)c1ccc2c(c1)C(=Cc1cccn1-c1ccc(Cl)cc1)C(=O)N2` [10724/D09]: the “Fik Kinase %Inhibition” value worked out at 0.9%.

`CCc1ccc(C=C2C(=O)Nc3ccc(S(=O)(=O)NC)cc32)o1` [10724/D10]: the “Fik Kinase %Inhibition” value came to 3.7%.

Consider `CNS(=O)(=O)c1ccc2c(c1)C(=Cc1sc3scc(C)c3c1C)C(=O)N2` [10724/D11], for which the “Fik Kinase %Inhibition” value is listed as 14.9%.

As to `CN(C)c1ccc(C=C2C(=O)Nc3ccc(S(=O)(=O)Nc4ccc(C(F)(F)F)cc4)cc32)c2ccccc12` [10724/E02], the “Fik Kinase %Inhibition” value is reported as 17.7%.

`O=C1Nc2ccc(S(=O)(=O)Nc3ccc(C(F)(F)F)cc3)cc2C1=Cc1ccc(O)c([N+](=O)[O-])c1` [10724/E03]: the “Fik Kinase %Inhibition” value is 10.6%.

Consider `O=C1Nc2ccc(S(=O)(=O)Nc3ccc(C(F)(F)F)cc3)cc2C1=Cc1ccc([N+](=O)[O-])c(O)c1` [10724/E04], for which the “Fik Kinase %Inhibition” value is on record as 55.2%.

For `O=C1Nc2ccc(S(=O)(=O)Nc3ccc(C(F)(F)F)cc3)cc2C1=Cc1cc2c3c(c1O)CCCN3CCC2` [10724/E05], the “Fik Kinase %Inhibition” value was found to be 13.8%.

In the case of `CC(C)c1cc(C=C2C(=O)Nc3ccc(S(=O)(=O)Nc4ccc(C(F)(F)F)cc4)cc32)cc(C(C)C)c1O` [10724/E06], the “Fik Kinase %Inhibition” value is reported as 8.3%.

As to `O=C1Nc2ccc(S(=O)(=O)Nc3ccc(C(F)(F)F)cc3)cc2C1=Cc1cc2ccccc2o1` [10724/E07], the “Fik Kinase %Inhibition” value is on record as -3.6%.

On to `O=C1Nc2ccc(S(=O)(=O)Nc3ccc(C(F)(F)F)cc3)cc2C1=Cc1cccn1-c1ccc(Cl)cc1` [10724/E09], for which the “Fik Kinase %Inhibition” value came to 14.3%.

Take `CCc1ccc(C=C2C(=O)Nc3ccc(S(=O)(=O)Nc4ccc(C(F)(F)F)cc4)cc32)o1` [10724/E10]: the “Fik Kinase %Inhibition” value is on record as 7.3%.

With `Cc1csc2sc(C=C3C(=O)Nc4ccc(S(=O)(=O)Nc5ccc(C(F)(F)F)cc5)cc43)c(C)c12` [10724/E11], the “Fik Kinase %Inhibition” value is 5.1%.

For `CN(C)c1ccc(C=C2C(=O)Nc3ccc(CCCl)cc32)c2ccccc12` [10724/G02], the “Fik Kinase %Inhibition” value is 15.1%.

Take `O=C1Nc2ccc(CCCl)cc2C1=Cc1ccc(O)c([N+](=O)[O-])c1` [10724/G03]: the “Fik Kinase %Inhibition” value was -8.4%.

With `O=C1Nc2ccc(CCCl)cc2C1=Cc1ccc([N+](=O)[O-])c(O)c1` [10724/G04], the “Fik Kinase %Inhibition” value is -7.9%.

On to `O=C1Nc2ccc(CCCl)cc2C1=Cc1cc2c3c(c1O)CCCN3CCC2` [10724/G05], for which the “Fik Kinase %Inhibition” value is recorded as -0.1%.

In the case of `CC(C)c1cc(C=C2C(=O)Nc3ccc(CCCl)cc32)cc(C(C)C)c1O` [10724/G06], the “Fik Kinase %Inhibition” value was determined as 0.1%.

In the case of `O=C1Nc2ccc(CCCl)cc2C1=Cc1cc2ccccc2o1` [10724/G07], the “Fik Kinase %Inhibition” value is on record as -1.9%.

Regarding `O=C1Nc2ccc(CCCl)cc2C1=Cc1cccn1-c1ccc(Cl)cc1` [10724/G09], the “Fik Kinase %Inhibition” value is listed as 9.1%.

With `CCc1ccc(C=C2C(=O)Nc3ccc(CCCl)cc32)o1` [10724/G10], the “Fik Kinase %Inhibition” value stood at 7.0%.

As for `Cc1csc2sc(C=C3C(=O)Nc4ccc(CCCl)cc43)c(C)c12` [10724/G11], the “Fik Kinase %Inhibition” value was found to be 6.8%.

With `O=C1Nc2c(Br)cc(Br)cc2C1=Cc1sccc1Br` [10725/A02], the “Fik Kinase %Inhibition” value was -2.0%.

On to `COc1ccc(Br)c(C=C2C(=O)Nc3c(Br)cc(Br)cc32)c1O` [10725/A03], for which the “Fik Kinase %Inhibition” value worked out at 3.6%.

On to `Cc1cc(C=C2C(=O)Nc3c(Br)cc(Br)cc32)[nH]n1` [10725/A05], for which the “Fik Kinase %Inhibition” value was -13.9%.

Consider `COc1cc(C)cc(O)c1C=C1C(=O)Nc2c(Br)cc(Br)cc21` [10725/A06], for which the “Fik Kinase %Inhibition” value was -7.3%.

Take `O=CN1CCN(c2ccc(C=C3C(=O)Nc4c(Br)cc(Br)cc43)cc2)CC1` [10725/A07]: the “Fik Kinase %Inhibition” value was -12.3%.

As for `O=C1Nc2c(Br)cc(Br)cc2C1=Cc1ccc(N2CCOCC2)cc1` [10725/A08], the “Fik Kinase %Inhibition” value is given as -2.9%.

With `COC(=O)Cc1c(Cl)[nH]c(C=C2C(=O)Nc3c(Br)cc(Br)c(C)c32)c1C(=O)OC` [10725/A09], the “Fik Kinase %Inhibition” value is on record as -13.9%.

For `Cc1c(Br)cc(Br)c2c1C(=Cc1c(Br)cnn1-c1ccc(Cl)cc1)C(=O)N2` [10725/A10], the “Fik Kinase %Inhibition” value is -3.2%.
